Target: GTPase KRas (Homo sapiens, UniProt P01116)
Assay: Inhibition of GDP loaded biotin-labeled KRAS G12C mutant (unknown origin) assessed as reduction in guanine nucleotide exchange preincubated for 4 hrs followed by GST-RAF-RBD addition in presence of GTPgammaS by FRET assay

GTPase KRas, sequence (P01116 whole entry G12C): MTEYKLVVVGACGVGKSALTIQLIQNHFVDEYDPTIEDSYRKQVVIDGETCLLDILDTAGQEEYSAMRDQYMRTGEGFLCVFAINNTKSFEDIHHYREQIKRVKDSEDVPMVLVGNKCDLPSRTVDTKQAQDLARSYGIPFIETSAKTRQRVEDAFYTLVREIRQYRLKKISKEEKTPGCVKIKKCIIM

- IC50: 21 nM
Compound: C=CC(=O)N1CCN2c3nc(N4CC(N(C)C)C4)nc4cc(-c5c(C)ccc6[nH]ncc56)c(Cl)c(c34)OC[C@@H]2C1

Reference: BindingDB's records for doi:10.1021/acsmedchemlett.8b00576 (Usona Institute, 2019)
